How the values were obtained:
[1] = biological target: Calcium/calmodulin-dependent protein kinase type 1 (Homo sapiens) (UniProt Q14012); assay: Binding affinity to wild-type human full length CAMK1 (M1 to L370 residues) expressed in bacterial expression system assessed as residual binding level at 10 uM by Kinomescan method relative to control
[2] = system: PC-3; assay: Cytotoxicity against human PC3 cells assessed as growth inhibition incubated for 48 hrs by Hoechst 33342 staining based assay; format: cell-based; conditions: PC-3, 48 h
[3] = biological target: Ephrin type-A receptor 1 (Homo sapiens) (UniProt P21709); assay: Binding affinity to wild-type human partial length EPHA1 (V588 to I913 residues) expressed in bacterial expression system assessed as residual binding level at 10 uM by Kinomescan method relative to control
[4] = biological target: Phosphatidylinositol 4-phosphate 3-kinase C2 domain-containing subunit beta (Homo sapiens) (UniProt O00750); assay: Binding affinity to wild-type human partial length PIK3C2B (M1 to L1634 residues) expressed in mammalian expression system assessed as residual binding level at 10 uM by Kinomescan method relative to control
[5] = biological target: Muscle, skeletal receptor tyrosine-protein kinase (Homo sapiens) (UniProt O15146); assay: Binding affinity to wild-type human partial length MUSK (M553 to V869 residues) expressed in bacterial expression system assessed as residual binding level at 10 uM by Kinomescan method relative to control
[6] = biological target: Tyrosine-protein kinase SYK (Homo sapiens) (UniProt P43405); assay: Binding affinity to wild-type human partial length SYK (D354 to N635 residues) expressed in bacterial expression system assessed as residual binding level at 10 uM by Kinomescan method relative to control
[7] = system: Mast/stem cell growth factor receptor Kit (Homo sapiens), P10721 [D816H]; assay: Binding affinity to human partial length KIT D816H mutant (I571 to D952 residues) expressed in mammalian expression system assessed as residual binding level at 10 uM by Kinomescan method relative to control
[8] = biological target: TRAF2 and NCK-interacting protein kinase (Homo sapiens) (UniProt Q9UKE5); assay: Binding affinity to wild-type human partial length TNIK (D4 to K311 residues) expressed in bacterial expression system assessed as residual binding level at 10 uM by Kinomescan method relative to control
[9] = biological target: 3-phosphoinositide-dependent protein kinase 1 (Homo sapiens) (UniProt O15530); assay: Binding affinity to wild-type human full length PDPK1 (M1 to Q556 residues) expressed in bacterial expression system assessed as residual binding level at 10 uM by Kinomescan method relative to control
[10] = biological target: Cyclin-dependent kinase-like 5 (Homo sapiens) (UniProt O76039); assay: Binding affinity to wild-type human partial length CDKL5 (M1 to S337 residues) expressed in mammalian expression system assessed as residual binding level at 10 uM by Kinomescan method relative to control
[11] = biological target: Receptor tyrosine-protein kinase erbB-4 (Homo sapiens) (UniProt Q15303); assay: Binding affinity to wild-type human partial length ERBB4 (L690 to K994 residues) expressed in bacterial expression system assessed as residual binding level at 10 uM by Kinomescan method relative to control
[12] = biological target: Bone morphogenetic protein receptor type-2 (Homo sapiens) (UniProt Q13873); assay: Binding affinity to wild-type human partial length BMPR2 (R179 to Q526 residues) expressed in mammalian expression system assessed as residual binding level at 10 uM by Kinomescan method relative to control
[13] = biological target: Glycogen synthase kinase-3 (Sus scrofa, UniProt B2LUN4+I6LNT8)
Description: Inhibition of native porcine brain GSK-3alpha/beta using GS-1 as substrate incubated for 30 mins in presence of [gamma-33P]ATP by liquid scintillation counting assay

[14] = biological target: cAMP-dependent protein kinase catalytic subunit alpha (Homo sapiens) (UniProt P17612); assay: Binding affinity to wild-type human partial length PKAC-alpha (G10 to F351 residues) expressed in bacterial expression system assessed as residual binding level at 10 uM by Kinomescan method relative to control
[15] = biological target: Tyrosine-protein kinase Tec (Homo sapiens) (UniProt P42680); assay: Binding affinity to wild-type human partial length TEC (L341 to D620 residues) expressed in bacterial expression system assessed as residual binding level at 10 uM by Kinomescan method relative to control
[16] = biological target: Serine/threonine-protein kinase TNNI3K (Homo sapiens) (UniProt Q59H18); assay: Binding affinity to wild-type human full length TNNI3K (M1 to S835 residues) expressed in bacterial expression system assessed as residual binding level at 10 uM by Kinomescan method relative to control
[17] = biological target: 5'-AMP-activated protein kinase catalytic subunit alpha-2 (Homo sapiens) (UniProt P54646); assay: Binding affinity to wild-type human partial length AMPK alpha2 (M1 to E306 residues) expressed in bacterial expression system assessed as residual binding level at 10 uM by Kinomescan method relative to control
[18] = biological target: Protein-tyrosine kinase 2-beta (Homo sapiens) (UniProt Q14289); assay: Binding affinity to wild-type human full length PYK2 (M1 to E967 residues) expressed in bacterial expression system assessed as residual binding level at 10 uM by Kinomescan method relative to control
[19] = biological target: Serine/threonine-protein kinase tousled-like 1 (Homo sapiens) (UniProt Q9UKI8); assay: Binding affinity to wild-type human partial length TLK1 (K447 to A754 residues) expressed in bacterial expression system assessed as residual binding level at 10 uM by Kinomescan method relative to control
[20] = system: Epidermal growth factor receptor (Homo sapiens), P00533 [UNDEFINED MUTATION]; assay: Binding affinity to human partial length EGFR L747-T751del/Sins mutant expressed in bacterial expression system assessed as residual binding level at 10 uM by Kinomescan method relative to control
[21] = biological target: Serine/threonine-protein kinase SBK1 (Homo sapiens) (UniProt Q52WX2); assay: Binding affinity to wild-type human partial length SBK1 (P23 to P348 residues) expressed in mammalian expression system assessed as residual binding level at 10 uM by Kinomescan method relative to control
[22] = biological target: Tyrosine-protein kinase ITK/TSK (Homo sapiens) (UniProt Q08881); assay: Binding affinity to wild-type human partial length ITK (R335 to L620 residues) expressed in bacterial expression system assessed as residual binding level at 10 uM by Kinomescan method relative to control
[23] = biological target: Mitogen-activated protein kinase 8 (Homo sapiens) (UniProt P45983); assay: Binding affinity to wild-type human full length JNK1 (M1 to Q384 residues) expressed in mammalian expression system assessed as residual binding level at 10 uM by Kinomescan method relative to control
[24] = biological target: Cholinesterase (Homo sapiens, UniProt P06276); assay: Inhibition of human serum BChE using BTCh as substrate preincubated for 20 mins followed by substrate addition and measured for 3 mins by Ellman's method
[25] = biological target: LIM domain kinase 2 (Homo sapiens) (UniProt P53671); assay: Binding affinity to wild-type human full length LIMK2 (M1 to P638 residues) expressed in bacterial expression system assessed as residual binding level at 10 uM by Kinomescan method relative to control

Bone morphogenetic protein receptor type-2 (Homo sapiens), sequence (Q13873 whole entry, the tested form may be a part): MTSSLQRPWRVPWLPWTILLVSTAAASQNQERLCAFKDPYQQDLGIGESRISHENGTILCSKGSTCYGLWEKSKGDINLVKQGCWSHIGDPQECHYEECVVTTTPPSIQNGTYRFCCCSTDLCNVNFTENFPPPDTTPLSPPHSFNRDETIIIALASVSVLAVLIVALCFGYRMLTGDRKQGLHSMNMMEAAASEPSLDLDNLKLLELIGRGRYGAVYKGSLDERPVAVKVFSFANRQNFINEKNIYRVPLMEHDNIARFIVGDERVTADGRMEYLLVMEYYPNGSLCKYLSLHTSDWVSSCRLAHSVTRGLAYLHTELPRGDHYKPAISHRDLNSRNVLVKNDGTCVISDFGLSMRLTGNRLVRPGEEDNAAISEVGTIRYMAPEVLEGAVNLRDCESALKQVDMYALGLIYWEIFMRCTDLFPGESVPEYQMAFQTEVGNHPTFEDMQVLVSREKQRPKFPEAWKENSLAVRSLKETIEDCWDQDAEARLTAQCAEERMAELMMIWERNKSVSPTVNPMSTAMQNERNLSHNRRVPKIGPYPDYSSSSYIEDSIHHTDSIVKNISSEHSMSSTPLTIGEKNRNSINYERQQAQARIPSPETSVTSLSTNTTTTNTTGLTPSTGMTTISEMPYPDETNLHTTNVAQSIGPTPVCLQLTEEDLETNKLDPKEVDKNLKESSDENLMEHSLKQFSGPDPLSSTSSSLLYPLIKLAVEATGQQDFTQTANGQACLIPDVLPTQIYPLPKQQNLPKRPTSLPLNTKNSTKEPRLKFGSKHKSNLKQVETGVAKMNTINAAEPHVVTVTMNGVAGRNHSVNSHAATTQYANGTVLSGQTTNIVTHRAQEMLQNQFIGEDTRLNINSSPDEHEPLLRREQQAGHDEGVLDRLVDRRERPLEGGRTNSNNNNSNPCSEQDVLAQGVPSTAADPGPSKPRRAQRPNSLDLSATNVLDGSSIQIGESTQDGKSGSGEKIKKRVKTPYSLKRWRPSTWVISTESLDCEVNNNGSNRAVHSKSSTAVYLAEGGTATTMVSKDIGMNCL
Serine/threonine-protein kinase TNNI3K (Homo sapiens), sequence (Q59H18 whole entry, the tested form may be a part): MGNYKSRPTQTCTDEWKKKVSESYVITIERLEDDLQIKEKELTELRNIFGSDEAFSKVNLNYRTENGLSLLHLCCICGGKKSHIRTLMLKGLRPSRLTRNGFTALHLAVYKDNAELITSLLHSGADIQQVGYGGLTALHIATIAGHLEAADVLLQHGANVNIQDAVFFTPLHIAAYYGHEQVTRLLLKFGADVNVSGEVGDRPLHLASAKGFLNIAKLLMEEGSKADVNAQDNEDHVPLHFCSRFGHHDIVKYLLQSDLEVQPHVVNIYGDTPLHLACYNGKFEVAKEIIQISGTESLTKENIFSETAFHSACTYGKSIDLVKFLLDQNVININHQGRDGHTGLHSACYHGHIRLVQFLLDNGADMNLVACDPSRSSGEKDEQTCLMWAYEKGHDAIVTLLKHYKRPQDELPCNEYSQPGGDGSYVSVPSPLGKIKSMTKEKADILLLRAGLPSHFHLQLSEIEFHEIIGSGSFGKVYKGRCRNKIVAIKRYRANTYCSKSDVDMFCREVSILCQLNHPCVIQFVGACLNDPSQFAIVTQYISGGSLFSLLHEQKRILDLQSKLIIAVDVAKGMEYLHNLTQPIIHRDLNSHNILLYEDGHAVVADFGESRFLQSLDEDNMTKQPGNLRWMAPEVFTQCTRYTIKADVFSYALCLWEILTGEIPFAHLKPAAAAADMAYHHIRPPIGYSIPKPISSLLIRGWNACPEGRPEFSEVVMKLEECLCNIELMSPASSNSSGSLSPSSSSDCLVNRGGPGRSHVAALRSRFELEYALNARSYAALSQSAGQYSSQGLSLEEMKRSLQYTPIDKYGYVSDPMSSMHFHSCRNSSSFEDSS
Protein-tyrosine kinase 2-beta (Homo sapiens), sequence (Q14289 whole entry, looked up, the tested form may be a part): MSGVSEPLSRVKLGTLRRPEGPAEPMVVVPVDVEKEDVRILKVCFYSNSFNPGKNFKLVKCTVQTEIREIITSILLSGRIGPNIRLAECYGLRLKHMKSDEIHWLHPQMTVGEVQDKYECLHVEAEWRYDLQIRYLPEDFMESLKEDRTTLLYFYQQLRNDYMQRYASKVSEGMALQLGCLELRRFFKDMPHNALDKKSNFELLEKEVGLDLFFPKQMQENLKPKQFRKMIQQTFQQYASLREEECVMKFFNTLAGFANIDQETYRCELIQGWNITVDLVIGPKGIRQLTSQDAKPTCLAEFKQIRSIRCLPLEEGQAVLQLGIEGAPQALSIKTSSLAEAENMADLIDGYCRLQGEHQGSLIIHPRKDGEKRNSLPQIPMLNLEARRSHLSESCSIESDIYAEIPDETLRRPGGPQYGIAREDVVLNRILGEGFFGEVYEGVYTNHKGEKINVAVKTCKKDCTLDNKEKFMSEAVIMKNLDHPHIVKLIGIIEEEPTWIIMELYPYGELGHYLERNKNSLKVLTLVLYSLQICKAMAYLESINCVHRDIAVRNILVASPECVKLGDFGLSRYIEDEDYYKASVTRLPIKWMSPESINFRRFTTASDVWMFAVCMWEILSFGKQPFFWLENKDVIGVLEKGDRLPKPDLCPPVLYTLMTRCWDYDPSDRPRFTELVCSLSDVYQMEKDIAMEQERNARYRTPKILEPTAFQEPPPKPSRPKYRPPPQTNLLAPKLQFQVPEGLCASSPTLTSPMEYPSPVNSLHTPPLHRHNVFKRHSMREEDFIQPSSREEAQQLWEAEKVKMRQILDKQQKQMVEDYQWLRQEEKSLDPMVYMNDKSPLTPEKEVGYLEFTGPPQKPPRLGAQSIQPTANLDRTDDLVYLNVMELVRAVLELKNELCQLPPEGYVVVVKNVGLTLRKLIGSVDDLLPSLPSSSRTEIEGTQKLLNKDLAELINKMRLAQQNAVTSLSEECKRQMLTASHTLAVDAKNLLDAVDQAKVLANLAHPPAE
Receptor tyrosine-protein kinase erbB-4 (Homo sapiens), sequence (Q15303 whole entry, the tested form may be a part): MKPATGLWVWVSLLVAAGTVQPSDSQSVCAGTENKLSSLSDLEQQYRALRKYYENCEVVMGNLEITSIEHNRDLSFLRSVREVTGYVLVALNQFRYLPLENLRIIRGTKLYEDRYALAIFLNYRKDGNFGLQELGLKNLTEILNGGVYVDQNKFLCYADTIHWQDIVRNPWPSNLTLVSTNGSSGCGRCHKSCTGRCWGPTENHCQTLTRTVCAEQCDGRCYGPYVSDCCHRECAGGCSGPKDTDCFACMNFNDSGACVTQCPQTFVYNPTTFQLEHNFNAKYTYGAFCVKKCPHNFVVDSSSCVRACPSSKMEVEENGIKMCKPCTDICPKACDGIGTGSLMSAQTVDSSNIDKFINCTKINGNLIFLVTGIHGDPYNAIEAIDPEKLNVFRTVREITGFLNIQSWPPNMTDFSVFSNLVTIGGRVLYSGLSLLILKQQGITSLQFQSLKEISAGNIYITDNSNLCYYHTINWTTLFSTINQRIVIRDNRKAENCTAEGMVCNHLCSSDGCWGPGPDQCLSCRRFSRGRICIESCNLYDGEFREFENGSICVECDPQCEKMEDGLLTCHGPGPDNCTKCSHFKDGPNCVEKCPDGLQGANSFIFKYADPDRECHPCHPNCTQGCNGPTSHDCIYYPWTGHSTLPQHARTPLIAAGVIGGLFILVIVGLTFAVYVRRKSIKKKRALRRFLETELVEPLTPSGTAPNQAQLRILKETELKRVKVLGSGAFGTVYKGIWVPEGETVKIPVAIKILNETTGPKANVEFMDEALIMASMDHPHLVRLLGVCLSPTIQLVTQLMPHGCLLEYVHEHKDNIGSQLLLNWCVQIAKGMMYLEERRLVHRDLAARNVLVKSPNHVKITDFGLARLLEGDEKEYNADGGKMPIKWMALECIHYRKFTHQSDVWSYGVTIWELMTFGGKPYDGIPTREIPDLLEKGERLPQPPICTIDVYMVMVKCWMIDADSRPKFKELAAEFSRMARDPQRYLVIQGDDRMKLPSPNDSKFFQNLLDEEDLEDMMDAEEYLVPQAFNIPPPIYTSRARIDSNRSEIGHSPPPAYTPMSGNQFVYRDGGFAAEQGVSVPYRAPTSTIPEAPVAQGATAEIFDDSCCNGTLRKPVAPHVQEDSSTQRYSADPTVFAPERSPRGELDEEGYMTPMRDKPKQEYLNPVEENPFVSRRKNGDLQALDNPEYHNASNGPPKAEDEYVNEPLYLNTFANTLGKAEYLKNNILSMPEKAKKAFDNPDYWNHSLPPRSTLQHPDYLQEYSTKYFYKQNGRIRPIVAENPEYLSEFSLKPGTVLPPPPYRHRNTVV
Cholinesterase, sequence (P06276 whole entry, the tested form may be a part): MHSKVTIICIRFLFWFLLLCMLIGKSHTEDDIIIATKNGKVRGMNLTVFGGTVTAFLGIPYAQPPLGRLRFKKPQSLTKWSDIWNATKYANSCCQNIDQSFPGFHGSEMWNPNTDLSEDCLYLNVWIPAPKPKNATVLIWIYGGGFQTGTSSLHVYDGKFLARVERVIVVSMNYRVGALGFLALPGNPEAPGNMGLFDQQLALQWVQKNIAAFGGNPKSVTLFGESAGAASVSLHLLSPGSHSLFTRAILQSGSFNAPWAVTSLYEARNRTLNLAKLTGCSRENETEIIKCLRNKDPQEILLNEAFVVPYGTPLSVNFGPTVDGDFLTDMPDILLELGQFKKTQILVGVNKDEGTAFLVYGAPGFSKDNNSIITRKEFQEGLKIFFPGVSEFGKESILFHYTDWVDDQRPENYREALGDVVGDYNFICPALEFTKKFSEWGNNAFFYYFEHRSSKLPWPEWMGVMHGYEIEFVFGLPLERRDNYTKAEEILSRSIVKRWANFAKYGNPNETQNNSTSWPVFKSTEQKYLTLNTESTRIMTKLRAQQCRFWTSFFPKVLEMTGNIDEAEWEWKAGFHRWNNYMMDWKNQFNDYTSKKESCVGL

## O=C(Nc1cc(-c2cn(CCNc3c4c(nc5ccccc35)CCCC4)nn2)ccn1)Nc1cccc2c1C1CCCCN1C2=O (racemic)
[1]
  Activity: 52%
[2]
  IC50: 5 µM
[3]
  Activity: 60%
[4]
  Activity: 51%
[5]
  Activity: 49%
[6]
  Activity: 91%
[7]
  Activity: 2.2%
[8]
  Activity: 48%
[9]
  Activity: 41%
[10]
  Activity: 0.35%
[11]
  Activity: 87%
[12]
  Activity: 55%
[13]
  IC50: 0.016 µM
[14]
  Activity: 100%
[15]
  Activity: 93%
[16]
  Activity: 100%
[17]
  Activity: 15%
[18]
  Activity: 74%
[19]
  Activity: 51%
[20]
  Activity: 75%
[21]
  Activity: 30%
[22]
  Activity: 82%
[23]
  Activity: 0.55%
[24]
  IC50: 0.301 µM
[25]
  Activity: 60%

Reference: ChEMBL document CHEMBL4390652, “Design, biological evaluation and X-ray crystallography of nanomolar multifunctional ligands targeting simultaneously acetylcholinesterase and glycogen synthase kinase-3” (Eur J Med Chem, 2019)
